# Reference: patent US11453633B2, “Production method for crystal of reduced coenzyme Q10 having excellent stability” (KANEKA CORPORATION, priority 2018, dated 2022)
# Columns and labels:
# [1] = compared with the conventional reduced coenzyme Q10 Form I crystal; cited from earlier work
# [2] = Reduced coenzyme Q10 concentration dissolved in the liquid phase of the crystallization mixture, by HPLC (Example 11); assay type: physicochemical; conditions: 99.5% ethanol
# Method: The inside of a 500 mL separable flask (made of borosilicate glass) was replaced with nitrogen, and 40.0 g of reduced coenzyme Q10 and 360 g of 99.5% ethanol were then added thereto (reduced coenzyme Q10 concentration: 10 wt. %). Thereafter, the obtained raw material mixture was warmed to 42° C. while stirring with a stirring blade (power required for stirring: 0.1 kw/m^3) to obtain a homogeneous solution. This solution was cooled to 35° C., and thereafter, 0.4 g (1 wt. %) of reduced coenzyme Q10 crystals comprising reduced coenzyme Q10 Form II crystals were added as seed crystals to the solution.
# The mixture obtained after the addition of the seed crystals was kept at 35° C. for 15 hours to precipitate crystals. Thereafter, the mixture was cooled to 25° C. at a constant cooling rate of −2° C./hour over 5 hours, and was then cooled to 10° C. at a constant cooling rate of −10° C./hour over 1.5 hours, to further precipitate crystals. After the temperature had reached 10° C., the mixture was filtered for solid-liquid separation. The obtained crystal was dried under reduced pressure at 35° C. for 10 hours to obtain a reduced coenzyme Q10 Form II crystal (Form II rate: 100%; recovery rate: 97%).
# In the present experiment, the liquid phase of the mixture was sampled immediately before addition of the seed crystals (at 0 hour), and then at 3 hours, 6 hours, 9 hours, 12 hours, 15 hours (so far, at 35° C.), 17.5 hours (30° C.), 20 hours (25° C.), 20.5 hours (20° C.), and 21.5 hours (10° C.) after the addition of the seed crystals. The concentration (wt. %) of reduced coenzyme Q10 dissolved in the liquid phase sample was measured according to high performance liquid chromatography.
# Conditions for the high performance liquid chromatography, by which the reduced coenzyme Q10 concentration was measured, are shown below.
# Column: SYMMETRY C18 (manufactured by Waters); 250 mm (length), 4.6 mm (inner diameter)
# Mobile phase: C2H5OH:CH3OH=4:3 (v:v)
# Detection wavelength: 210 nm
# Retention time of reduced coenzyme Q10: 9.1 min.
# [3] = compared with oxidized coenzyme Q10; cited from earlier work
SMILES,stability of the crystal form [1],"Reduced coenzyme Q10 concentration ([2]; crystallization time 0 h (immediately before addition of the seed crystals), 35° C.) [wt %]","Reduced coenzyme Q10 concentration ([2]; crystallization time 3 h, 35° C.) [wt %]","Reduced coenzyme Q10 concentration ([2]; crystallization time 6 h, 35° C.) [wt %]","Reduced coenzyme Q10 concentration ([2]; crystallization time 9 h, 35° C.) [wt %]","Reduced coenzyme Q10 concentration ([2]; crystallization time 12 h, 35° C.) [wt %]","Reduced coenzyme Q10 concentration ([2]; crystallization time 15 h, 35° C.) [wt %]","Reduced coenzyme Q10 concentration ([2]; crystallization time 17.5 h, 30° C.) [wt %]","Reduced coenzyme Q10 concentration ([2]; crystallization time 20 h, 25° C.) [wt %]","Reduced coenzyme Q10 concentration ([2]; crystallization time 20.5 h, 20° C.) [wt %]","Reduced coenzyme Q10 concentration ([2]; crystallization time 21.5 h, 10° C.) [wt %]",oral absorbability [3]
"COc1c(O)c(C)c(C/C=C(\C)CC/C=C(\C)CC/C=C(\C)CC/C=C(\C)CC/C=C(\C)CC/C=C(\C)CC/C=C(\C)CC/C=C(\C)CC/C=C(\C)CCC=C(C)C)c(O)c1OC [reduced coenzyme Q10 Form II crystal, reduced coenzyme Q10]",much more stable,,,,,,,,,,,
COc1c(O)c(C)c(C/C=C(\C)CC/C=C(\C)CC/C=C(\C)CC/C=C(\C)CC/C=C(\C)CC/C=C(\C)CC/C=C(\C)CC/C=C(\C)CC/C=C(\C)CCC=C(C)C)c(O)c1OC [reduced coenzyme Q10],,10.0,9.9,9.6,9.2,8.5,7.2,3.1,1.5,0.8,0.3,higher oral absorbability than that of oxidized coenzyme Q10
